Patent US20240254083A1, “HETEROCYCLIC TRPML1 AGONISTS AND USES THEREOF” (Libra Therapeutics, Inc., priority 2021, published 2024)

What was measured:
[1] = tested on: autophagy reporter Rosella stably expressed in HeK293 cell line; test: Autophagy assay (Rosella-LC3 reporter, imaging); assay type: cell-based; conditions: Homo sapiens; HeK293 cells with Rosella reporter (LC3 tag), 18 hours incubation, reference Torin-1; read-out: Autophagy pEC50 (converted)
Method: • Tyrode's buffer with 2 mM Ca^2+ in-house solution (130 mM NaCl, 5 mM KCl, 2 mM CaCl2), 1 mM MgCl2, 5 mM NaHCO3, 20 mM HEPES in water at pH 7.4; sterile filtered) • DMSO (Sigma) • Bis-benzimide H 33342 trihydrochloride (Hoechst 33342; Sigma-Aldrich) • Reference molecule (agonist): Torin-1, (#4247, Tocris) stock 1.2 mM in DMSO, stored at −20° C. Reporter of Autophagy and Cell line
Reporter Rosella: a fluorescent-based chimera constitutes by two fluorescent proteins, Green and Red variants, acting as a bimodal indicator of pH. The green fluorescent variant of the constructs is pH sensitive (pKa=6.9) while the red variant is not pH sensitive and it is used as reference. The reporter is fused to sequence for autophagosome localization (LC3 tag).
The reporter Rosella have been stably expressed in HeK293 cell line and used as read-out.
Experiments have been performed in 384 MTP poly-lysine coated well format. Cells have been seeded in 384-w at a density of 6000 cells/well in 25 μl/well complete growth medium without antibiotics. Twenty-four hours later, cells have been treated with compounds and incubated for further 18 hours. Then the cells have been imaged and assayed for the response to various compounds using the reporter for autophagy expressed in the cells as readout.
The experiments were performed in a 384-well format according to the following procedure: • 24 h after seeding, cells were incubated with compounds at the desired concentration, and with the reference molecule (agonist) Torin-1 at a top concentration of 1 μM (max signal), for 18 hours at 37° C. and 5% CO2. The final percentage of DMSO was 0.3% in all the conditions. • Then the culture medium was carefully removed to avoid cells detachment and to discard red phenol into the medium and that can interfere with the measurements. • Staining of the nuclei was obtained by incubating the cells with 8 μM/well of Hoechst 3342 in standard Tyrode's buffer for 20 min at RT • Then the cells were carefully washed two times with standard Tyrode's buffer • Finally, the samples were acquired by recording three fluorescence emission channels (green, red and blue) at 20× magnification and with at least 3-4 fields of view per well in an Operetta CLS microscope (PerkinElmer). • Image analysis was performed by using Harmony software (PerkinElmer). The image analysis involved the following steps: flat-field illumination correction, nuclei segmentation, cell segmentations and identification of vesicles/granules within the cytosol compartments and representing the autophagy vesicles. Measurements of signal intensity ratio (Green to Red) and number of autophagy vesicles per cells were used to obtain information on the effects of compounds on the autophagy flux. • Data from image analysis measurements were finally loaded and analyzed for normalization and fitting procedures in Genedata Screener© software.

hTRPML1 = biological target: T1, hTRPML1 (Homo sapiens, UniProt Q9GZU1); test: Cellular TRPML1 assay (FLIPR, GCaMP6f calcium read-out); assay type: cell-based; conditions: HEK T-REx/GCaMP6f/TRPML1 cells, FLIPR TETRA, kinetic response over 300 seconds; read-out: hTRPML1 FLIPR pEC50 (converted)
T1 construct: expressed in transfected cells
Method: Buffers and reagents • PBS (D-PBS without calcium and magnesium; EuroClone) • Trypsin (Trypsin 0.05%, EDTA 0.02% in PBS; EuroClone) • DMSO (Sigma) • Ca^2+ free Tyrode's buffer: in-house solution (130 mM NaCl, 5 mM KCl, 1 mM MgCl2, 5 mM NaHCO3, 20 mM HEPES in water at pH 7.4; sterile filtered). • Opti-MEM (Gibco) • Agonist: ML-SA1 (Sigma); stock: 60 mM in DMSO, stored at −20° C. • Blocker: ML-SI3 (in house synthesis); stock: 20 mM in DMSO, stored at −20° C.
Cell line • The final clone for the TRPML1 assay is HEK T-REx/GCaMP6f/TRPML1. • GCaMP6f is a genetically encoded calcium indicator that is stably expressed in this cell line and used as a fluorescent read-out.
Cells are seeded at 15000 cells/well either in 25 µl/well of growth medium or in 20 μl/well of Optimem+0.5% FBS without selection antibiotics. Twenty-four hours later, cells are assayed for the response to various compounds using the Ca^2+ sensitive GCaMP6f protein stably expressed in the cells as readout.
The experiment is performed in a 384-well format according to the following procedures for either Ca^2+ free or Optimem conditions: • Ca^2+ free condition (in absence of extracellular Ca^2+): • 24 h after seeding, pre-incubate the cells at room temperature for about 10′. • Then remove the culture medium and replace it with 20 μL of Ca^2+ free Tyrode's buffer. • Start the experiment at the FLIPR^TETRA by injecting 10 μL/w of 3× concentrated test compounds and controls in Ca^2+ free Tyrode's buffer. Monitor the kinetic response over a period of 300 seconds. • Final DMSO concentration: 0.5% • Optimem condition (in presence of extracellular Ca^2+): • 24 h after seeding, pre-incubate the cells at room temperature for about 10′. • Start the experiment at the FLIPR^TETRA by injecting 10 μL/w of 3× concentrated test compounds and controls in Ca^2+ free Tyrode's buffer. Monitor the kinetic response over a period of 300 seconds. • Final DMSO concentration: 0.5%
Data from FLIPR^TETRA measurements are analyzed with the Genedata Screener© software.

T1 sequence (Q9GZU1 whole entry): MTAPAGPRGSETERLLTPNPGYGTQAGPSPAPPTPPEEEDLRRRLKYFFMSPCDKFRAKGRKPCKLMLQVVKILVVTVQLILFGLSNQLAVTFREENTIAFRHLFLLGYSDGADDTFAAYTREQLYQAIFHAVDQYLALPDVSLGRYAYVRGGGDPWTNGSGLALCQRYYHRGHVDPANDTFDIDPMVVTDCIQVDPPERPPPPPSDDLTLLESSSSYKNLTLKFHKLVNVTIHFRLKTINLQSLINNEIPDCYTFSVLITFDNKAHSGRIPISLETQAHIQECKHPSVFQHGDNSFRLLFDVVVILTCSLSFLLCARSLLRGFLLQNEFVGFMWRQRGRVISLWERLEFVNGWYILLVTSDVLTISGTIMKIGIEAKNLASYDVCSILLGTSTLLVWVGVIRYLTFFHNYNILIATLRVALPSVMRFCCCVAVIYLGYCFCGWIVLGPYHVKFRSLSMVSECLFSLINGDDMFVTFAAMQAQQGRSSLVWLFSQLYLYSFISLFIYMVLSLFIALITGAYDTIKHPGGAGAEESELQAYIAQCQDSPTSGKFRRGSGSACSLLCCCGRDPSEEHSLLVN

| EC50 (hTRPML1) | SMILES | EC50 [1] |
| --- | --- | --- |
| 1 to 3.16 µM | CC(C)(C)OC(=O)N1CCN(c2ccccc2NS(=O)(=O)c2ccc(C(F)(F)F)cc2)CC1 [Example 17, tert-butyl 4-(2-((4-(trifluoromethyl)phenyl)sulfonamido)phenyl) piperazine-1-carboxylate] | < 1 µM |
| 1 to 3.16 µM | Cc1ccc(S(=O)(=O)Nc2ccccc2N2CCN(C(=O)OC(C)(C)C)CC2)cc1F [Example 19, tert-butyl 4-(2-((3-fluoro-4-methylphenyl)sulfonamido)phenyl)piperazine-1-carboxylate] | > 3.16 µM |
| 1 to 3.16 µM | Cc1ccc(S(=O)(=O)Nc2c(C)cccc2N2CCN(C(=O)OC(C)(C)C)CC2)cc1 [Example 22, tert-butyl 4-(3-methyl-2-((4-methylphenyl)sulfonamido)phenyl)piperazine-1-carboxylate] | > 3.16 µM |
| 1 to 3.16 µM | CC(C)(C)OC(=O)N1CCN(c2ccccc2NS(=O)(=O)c2ccc(C3CC3)cc2)CC1 [Example 23, tert-butyl 4-(2-((4-cyclopropylphenyl)sulfonamido)phenyl) piperazine-1-carboxylate] | > 3.16 µM |
| > 3.16 µM | CN(C)S(=O)(=O)c1ccc(S(=O)(=O)Nc2ccccc2N2CCOC(C3CCC3)C2)cc1 (stereo not shown) [Example 32, N^1-(2-(2-cyclobutylmorpholino)phenyl)-N^4,N^4-dimethylbenzene-1,4-disulfonamide] | 1 to 3.16 µM |

The remaining lines, values behind:

| SMILES | EC50 (hTRPML1) | EC50 [1] |
| --- | --- | --- |
| CN(C)S(=O)(=O)c1ccc(S(=O)(=O)Nc2ccccc2N2CCCC(OCc3ccccc3)C2)cc1 (racemic) [Example 25, N^1-(2-(3-(benzyloxy)piperidin-1-yl)phenyl)-N^4,N^4-dimethylbenzene-1,4-disulfonamide] | 1 to 3.16 µM | 1 to 3.16 µM |
| CN(C)S(=O)(=O)c1ccc(S(=O)(=O)Nc2ccccc2N2CCCC(Oc3ccccc3)C2)cc1 (racemic) [Example 28, N^1,N^1-dimethyl-N^4-(2-(3-phenoxypiperidin-1-yl)phenyl)benzene-1,4-disulfonamide] | 1 to 3.16 µM | < 1 µM |
| CN(C)S(=O)(=O)c1ccc(S(=O)(=O)Nc2ccccc2N2CCCC(COc3ccccc3)C2)cc1 (racemic) [Example 34, N^1,N^1-dimethyl-N^4-(2-(3-(phenoxymethyl)piperidin-1-yl)phenyl)benzene-1,4-disulfonamide] | 1 to 3.16 µM | 1 to 3.16 µM |
| CN(C)S(=O)(=O)c1ccc(C(=O)N(c2ccccc2N2CCC(Oc3ccccc3)CC2)C2CCCC2)cc1 [Example 1, N-cyclopentyl-4-(N,N-dimethylsulfamoyl)-N-(2-(4-phenoxypiperidin-1-yl)phenyl)benzamide] | 1 to 3.16 µM | < 1 µM |
| CN(C)S(=O)(=O)c1ccc(C(=O)N(c2ccccc2N2CCC(Oc3ccccc3)CC2)C2CCC2)cc1 [Example 2, N-cyclobutyl-4-(N,N-dimethylsulfamoyl)-N-(2-(4-phenoxypiperidin-1-yl)phenyl)benzamide] | 1 to 3.16 µM | < 1 µM |
| CCS(=O)(=O)c1ccc(S(=O)(=O)Nc2ccccc2N2CCC(Oc3ccccc3)CC2)cc1 [Example 6, 4-(ethylsulfonyl)-N-(2-(4-phenoxypiperidin-1-yl)phenyl)benzenesulfonamide] | > 3.16 µM | > 3.16 µM |
| CN(C)S(=O)(=O)c1ccc(S(=O)(=O)Nc2cccc(F)c2N2CCC(Oc3ccccn3)CC2)cc1 [Example 8, N^1-(3-fluoro-2-(4-(pyridin-2-yloxy)piperidin-1-yl)phenyl)-N^4,N^4-dimethylbenzene-1,4-disulfonamide] | < 1 µM | < 1 µM |
| O=S(=O)(Nc1cccc(F)c1N1CCC(Oc2ccccn2)CC1)c1ccc(C(F)(F)F)cc1 [Example 10, N-(3-fluoro-2-(4-(pyridin-2-yloxy)piperidin-1-yl)phenyl)-4-(trifluoromethyl)benzenesulfonamide] | 1 to 3.16 µM | 1 to 3.16 µM |
| CN(C)S(=O)(=O)c1ccc(S(=O)(=O)Nc2ccccc2N2CCOC(C3CC3)C2)cc1 (stereo not shown) [Example 31, N^1-(2-(2-cyclopropylmorpholino)phenyl)-N^4, N^4-dimethylbenzene-1,4-disulfonamide] | > 3.16 µM | > 3.16 µM |
| C#CCC1CN(c2ccccc2NS(=O)(=O)c2ccc(S(=O)(=O)N(C)C)cc2)CCO1 (stereo not shown) [Example 33, N^1,N^1-dimethyl-N^4-(2-(2-(prop-2-yn-1-yl)morpholino)phenyl)benzene-1,4-disulfonamide] | > 3.16 µM | < 1 µM |
| CN(C)S(=O)(=O)c1ccc(S(=O)(=O)Nc2ccccc2N2CCC(C)(c3ccccc3)CC2)cc1 [Example 38, N^1,N^1-dimethyl-N^4-(2-(4-methyl-4-phenylpiperidin-1-yl)phenyl)benzene-1,4-disulfonamide] | 1 to 3.16 µM | < 1 µM |
| CN(C)S(=O)(=O)c1ccc(S(=O)(=O)Nc2ccccc2N2CCC(C)(Oc3ccccn3)CC2)cc1 [Example 40, N^1,N^1-dimethyl-N^4-(2-(4-methyl-4-(pyridin-2-yloxy)piperidin-1-yl)phenyl)benzene-1,4-disulfonamide] | > 3.16 µM | < 1 µM |
